Data from patent US9266897B2, “Derivatives of protoberberine biological alkaloids and use of same inhibiting ulcerative colitis” (Institute of Materia Medica, Chinese Academy of Medical …, priority 2011, dated 2016).
“Also recorded” adds a separate entry of the source. Marks after values point to notes of the source that are not given here. Values belong to the compound of their own block, whether it stands above or below them.

How the values were obtained:
xbp1 upstream promoter = assay: Transcriptional activation of pGL3-pxbp1 (dual luciferase reporter gene) in IEC-6 cells; assay type: cell-based; settings: Rattus norvegicus, IEC-6 cells transfected with pGL3-pxbp1, 36 h-48 h, read-out: EC50 of transcriptional activation effect on xbp1 gene
Experimental: (§1) (1) Method: IEC-6 cells in the period of vigorous growth were seed in 48 well plate at a density of 5×10^4 to disperse the cells uniform and then it was placed in a humidifying cell incubator filled with 5% CO2 at 37° C. to incubate. Plasmid transfection (0.6 μg/well) was carried out when the cells confluencing up to 70%-80%. After 4 h, each compound of 1×10^−5 mol/L was added into these wells (n=3), respectively, and incubated for another 36 h-48 h together with existing transfected cells. Luciferase activity detection on test samples was proceeded using dual luciferase report gene detection kit (Promega, USA).
as §1, with “logarithmic phase” for “vigorous growth”, “different concentrations” for “each compound”, “compounds 1, 2, 7, and 10 were” for “1×10^−5 mol/L was”, “added” for “added into these wells”

[1] = system: SD rats with acetic acid-induced UC; assay: Acetic acid-induced acute UC in SD rats; assay type: in vivo
Experimental: (§2) (1) Method: In vivo test was carried out according to the literature: Y. Yoshioka, H. Akiyama, M. Nakano, T. Shoji, T. Kanda, Y. Ohtake, T. Takita, R. Matsuda, T. Maitani. Orally administered apple procyanidins protect against experimental inflammatory bowel disease in mice, international immunopharmacology, 2008, 1802-1807.
Disease activity index (DAI) is evaluated by weight loss, shape of stool, hematochezia, and other indicators; macroscopic score of colon tissue is evaluated by intestinal mucosal hyperemia, edema of intestinal wall, ulcer size, and other indicators. The lower the DAI and macroscopic score is, the more close to the normal physiological state. In Table 1: **p<0.01 when compared with the normal control group; ##p<0.01 when compared with the model group.

[2] = system: C57/blc mice with DSS-induced UC; assay: DSS-induced acute UC in C57/blc mice; assay type: in vivo; settings: for colon histopathology (inflammatory lesion): HE×200
Experimental: as §2
DAI is evaluated by weight loss, shape of stool, hematochezia, and other indicators; macroscopic score of colon tissue is evaluated by intestinal mucosal hyperemia, edema of intestinal wall, ulcer size, and other indicators. The lower the DAI and macroscopic score is, the more close to the physiological state of the normal animal. In Table 3: **p<0.01 when compared with the normal control group; ##p<0.01 when compared with the model group.

[3] = Table 5, 300 mg/kg, model 3.39 ± 0.64
[4] = Table 5, 300 mg/kg, model 5.69 ± 1.12
[5] = Table 7, 300 mg/kg, model 3.85 ± 0.34
[6] = Table 7, 300 mg/kg, model 5.59 ± 1.01

SMILES: C1=C2c3cc4c(cc3CCN2Cc2c1ccc1c2OCO1)OCO4 [Compound 1, dihydrocoptisine]
- EC50 (xbp1 upstream promoter): 0.00229 µM
- disease activity index (DAI) inhibitory rate in UC model ([2]; 300 mg/kg): 69%
- Body weight (g) x ± SD end ([2]; Table 4, HD 500 mg/kg): 19.87 ± 1.0 g
- Body weight (g) x ± SD end ([2]; Table 4, LD 75 mg/kg): 21.15 ± 1.1 g
- Body weight (g) x ± SD end ([2]; Table 4, MD 250 mg/kg): 19.95 ± 1.6 g
- DAI [2, 3]: 2.33 ± 0.11##
- macroscopic score of colon tissue [2, 4]: 2.66 ± 0.46##
- DAI ([2]; Table 5, LD 75 mg/kg, model 3.39 ± 0.64): 2.99 ± 0.14#
- macroscopic score of colon tissue ([2]; Table 5, LD 75 mg/kg, model 5.69 ± 1.12): 4.93 ± 0.61
- DAI ([2]; Table 5, MD 150 mg/kg, model 3.39 ± 0.64): 1.81 ± 0.27##
- macroscopic score of colon tissue ([2]; Table 5, MD 150 mg/kg, model 5.69 ± 1.12): 2.01 ± 0.16##

SMILES: O=C(O)c1cc(/N=N/c2ccc(S(=O)(=O)Nc3ccccn3)cc2)ccc1O [SASP, reference compound]
- disease activity index (DAI) inhibitory rate in UC model ([2]; 300 mg/kg): 32%
- Body weight (g) x ± SD end ([2]; Table 2, 300 mg/kg): 20.09 ± 0.9 g
- DAI ([2]; Table 3, 300 mg/kg, model 3.33 ± 0.54): 2.27 ± 0.43##
- macroscopic score of colon tissue ([2]; Table 3, 300 mg/kg, model 5.54 ± 1.23): 3.24 ± 0.77##
- Body weight (g) x ± SD end ([2]; Table 4, 300 mg/kg): 21.15 ± 0.6 g
- DAI [2, 3]: 2.54 ± 0.23##
- macroscopic score of colon tissue [2, 4]: 2.95 ± 0.52##
- Body weight (g) x ± SD end ([2]; Table 6, 300 mg/kg): 25.09 ± 0.9 g
- DAI [2, 5]: 2.27 ± 0.43##
- macroscopic score of colon tissue [2, 6]: 3.24 ± 0.77##
- colon histopathology (inflammatory lesion) ([2]; positive drug SASP group): improvement of visible colitis lesions and partial recovery of structure of each layer

More lines, main results first:

- EC50 (xbp1 upstream promoter): 0.221 µM
SMILES: CC(=O)CC1c2c(ccc3c2OCO3)C=C2c3cc4c(cc3CCN21)OCO4 (racemic) [Compound 7, (±)-8-acetonyldihydrocoptisine]
- macroscopic and histopathological results of colon tissue ([1]; 300 mg/kg): good therapeutic effect on UC
- body weight change value compared with before administration (decreased by) ([1]; 300 mg/kg, model group decreased by 19.2%): 10%
- macroscopic score ([1]; Table 1, 300 mg/kg): 2.05 ± 0.45##
- DAI ([1]; Table 1, 300 mg/kg, model 3.15 ± 0.45): 1.15 ± 0.22##
- disease activity index (DAI) inhibitory rate in UC model ([2]; 500 mg/kg): 64%
- colon histopathology (inflammatory lesion) ([2]; HD group 500 mg/kg): significant improvement on the colon inflammatory lesion; also recorded: the lesion of inflammatory bowel diseases is more significantly improved
- colon histopathology (inflammatory lesion) ([2]; LD group 125 mg/kg): the inflammatory lesions of colon tissue also has a partial remission
- colon histopathology (inflammatory lesion) ([2]; MD group 250 mg/kg): the inflammatory lesions of colon tissue also has a partial remission
- Body weight (g) x ± SD end ([2]; Table 2, HD 500 mg/kg): 21.57 ± 1.5 g
- Body weight (g) x ± SD end ([2]; Table 2, MD 250 mg/kg): 20.54 ± 2.1 g
- DAI ([2]; Table 3, HD 500 mg/kg, model 3.33 ± 0.54): 1.33 ± 0.31##
- macroscopic score of colon tissue ([2]; Table 3, HD 500 mg/kg, model 5.54 ± 1.23): 2.05 ± 0.28##
- DAI ([2]; Table 3, LD 125 mg/kg, model 3.33 ± 0.54): 3.01 ± 0.38
- macroscopic score of colon tissue ([2]; Table 3, LD 125 mg/kg, model 5.54 ± 1.23): 4.93 ± 0.61
- DAI ([2]; Table 3, MD 250 mg/kg, model 3.33 ± 0.54): 2.01 ± 0.27##
- macroscopic score of colon tissue ([2]; Table 3, MD 250 mg/kg, model 5.54 ± 1.23): 3.30 ± 0.66##

- EC50 (xbp1 upstream promoter): 0.00706 µM
SMILES: C1=C2c3cc4c(cc3CCN2Cc2cc3c(cc21)OCO3)OCO4 [Compound 2, dihydropseudocoptisine]
- disease activity index (DAI) inhibitory rate in UC model ([2]; 300 mg/kg): 80%
- Body weight (g) x ± SD end ([2]; Table 6, 300 mg/kg): 26.17 ± 1.5 g
- DAI [2, 5]: 1.05 ± 0.26##
- macroscopic score of colon tissue [2, 6]: 2.94 ± 0.21##

- EC50 (xbp1 upstream promoter): 0.0473 µM
SMILES: C=C(C(=O)CC)c1c2c(OC)c(OC)ccc2c(C)c2[n+]1CCc1cc3c(cc1-2)OCO3 [Compound 10]
